Measured values published in patent US20110015119A1, “NOVEL SEMI-SYNTHETIC GLYCOPEPTIDES AS ANTIBACTERIAL AGENTS” (LEAD THERAPEUTICS, INC., priority 2009, published 2011).
Values after ≈ are worked out from the molar mass of the structure shown.

Key:
Type in all cases: cell-based
[1] = test system: Streptococcus pyogenes 712; assay: MIC by broth microdilution, SPY 712; conditions: Streptococcus pyogenes 712; class symbols; read-out: MIC S PYO 712
Protocol: (§1) Antibacterial activity in vitro is investigated by broth microdilution method in Meuller-Hinton broth as recommended by NCCLS. All strains tested are clinical isolates either sensitive or resistant to natural glycopeptides. MIC values were determined using the CLSI-recommended broth microdilution procedure (Clinical and Laboratory Standards Institute, Methods for Dilution Antimicrobial Susceptibility Tests for Bacteria That Grow Aerobically; Approved Standard-Seventh Edition.). Automated liquid handlers (Multidrop 384, Labsystems, Helsinki, Finland; Biomek 2000 and Multimek 96, Beckman Coulter, Fullerton Calif.) were used to conduct serial dilutions and liquid transfers. The MIC value for vancomycin is given for comparison. The abbreviations for organisms tested are as follow: SA 100—Staphylococcus aureus 100 (ATCC 29213); SA 757—Staphylococcus aureus 757 (MRSA); SA 2012—Staphylococcus aureus 2012 (VISA); SE 835—Staphylococcus epidermidis 835; SE 831—Staphylococcus epidermidis 831 (MRSE); EFc 101—Enterococcus faecalis 101 (ATCC 29212); EFc 848—Enterococcus faecalis 848 (VRE, Van A); EFcm 800—Enterococcus faecium 800; EFcm 752—Enterococcus faecium 752 (VRE, Van A); SPNE 1195—Streptococcus pneumoniae 1195 (ATCC 49619); SPY 712—Streptococcus pyogenes 712.

Enterococcus faecium 800 = assay: MIC by broth microdilution, EFcm 800; conditions: Enterococcus faecium 800; class symbols; read-out: MIC E FCM 800
Protocol: as §1

[2] = test system: Staphylococcus aureus 2012 (VISA); assay: MIC by broth microdilution, SA 2012; conditions: Staphylococcus aureus 2012 (VISA); class symbols; read-out: MIC SA 2012
Protocol: as §1

[3] = test system: Staphylococcus epidermidis 831 (MRSE); assay: MIC by broth microdilution, SE 831; conditions: Staphylococcus epidermidis 831 (MRSE); class symbols; read-out: MIC SE 831
Protocol: as §1

[4] = test system: Streptococcus pneumoniae 1195 (ATCC 49619); assay: MIC by broth microdilution, SPNE 1195; conditions: ATCC49619; Streptococcus pneumoniae 1195 (ATCC 49619); class symbols; read-out: MIC S PNE 1195
Protocol: as §1

[5] = test system: Enterococcus faecalis 848 (VRE, Van A); assay: MIC by broth microdilution, EFc 848; conditions: Enterococcus faecalis 848 (VRE, Van A); class symbols; read-out: MIC E FC 848
Protocol: as §1

[6] = test system: Staphylococcus aureus 100 (ATCC 29213); assay: MIC by broth microdilution, SA 100; conditions: ATCC29213; Staphylococcus aureus 100 (ATCC 29213); class symbols; read-out: MIC SA 100
Protocol: as §1

[7] = test system: Enterococcus faecium 752 (VRE, Van A); assay: MIC by broth microdilution, EFcm 752; conditions: Enterococcus faecium 752 (VRE, Van A); class symbols; read-out: MIC E FCM 752
Protocol: as §1

[8] = test system: Enterococcus faecalis 101 (ATCC 29212); assay: MIC by broth microdilution, EFc 101; conditions: ATCC29212; Enterococcus faecalis 101 (ATCC 29212); class symbols; read-out: MIC E FC 101
Protocol: as §1

[9] = test system: Staphylococcus epidermidis 835; assay: MIC by broth microdilution, SE 835; conditions: Staphylococcus epidermidis 835; class symbols; read-out: MIC SE 835
Protocol: as §1

[10] = test system: Staphylococcus aureus 757 (MRSA); assay: MIC by broth microdilution, SA 757; conditions: Staphylococcus aureus 757 (MRSA); class symbols; read-out: MIC SA 757
Protocol: as §1

MIC [1] [µg/mL] | MIC (Enterococcus faecium 800) [µg/mL] | MIC [2] [µg/mL] | MIC [3] [µg/mL] | MIC [4] [µg/mL] | MIC [5] [µg/mL] | MIC [6] [µg/mL] | MIC [7] [µg/mL] | MIC [8] [µg/mL] | MIC [9] [µg/mL] | MIC [10] [µg/mL] | Compound
0.01 to 0.5 (≈ 0.00534 to 0.267 µM) | 0.01 to 0.5 (≈ 0.00534 to 0.267 µM) | 0.01 to 0.5 (≈ 0.00534 to 0.267 µM) | 0.01 to 0.5 (≈ 0.00534 to 0.267 µM) | 0.01 to 0.5 (≈ 0.00534 to 0.267 µM) | 4 to 8 (≈ 2.14 to 4.27 µM) | 0.01 to 0.5 (≈ 0.00534 to 0.267 µM) | 0.5 to 1 (≈ 0.267 to 0.534 µM) | 0.01 to 0.5 (≈ 0.00534 to 0.267 µM) | 0.01 to 0.5 (≈ 0.00534 to 0.267 µM) | 0.01 to 0.5 (≈ 0.00534 to 0.267 µM) | CCCCCCc1ccc(S(=O)(=O)NCCCCCCNCc2c(O)cc3c(c2O)-c2cc(ccc2O)[C@H]2NC(=O)[C@@H]4NC(=O)[C@H](CC(N)=O)NC(=O)[C@H](NC(=O)[C@@H](CC(C)C)NC)[C@H](O)c5ccc(c(Cl)c5)Oc5cc4cc(c5O[C@@H]4O[C@H](CO)[C@@H](O)[C@H](O)[C@H]4O[C@H]4C[C@](C)(NC(=O)[C@@H](C)N)[C@H](O)[C@H](C)O4)Oc4ccc(cc4Cl)[C@@H](O)[C@H](NC2=O)C(=O)N[C@@H]3C(=O)O)cc1 (atropisomer, axis not shown) [Compound 342]
0.01 to 0.5 (≈ 0.00526 to 0.263 µM) | 0.01 to 0.5 (≈ 0.00526 to 0.263 µM) | 0.01 to 0.5 (≈ 0.00526 to 0.263 µM) | 0.01 to 0.5 (≈ 0.00526 to 0.263 µM) | 0.01 to 0.5 (≈ 0.00526 to 0.263 µM) | 8 to 16 (≈ 4.21 to 8.42 µM) | 0.01 to 0.5 (≈ 0.00526 to 0.263 µM) | 1 to 2 (≈ 0.526 to 1.05 µM) | 0.01 to 0.5 (≈ 0.00526 to 0.263 µM) | 0.01 to 0.5 (≈ 0.00526 to 0.263 µM) | 0.01 to 0.5 (≈ 0.00526 to 0.263 µM) | CCCCCCc1ccc(S(=O)(=O)NCCCCCCNCc2c(O)cc3c(c2O)-c2cc(ccc2O)[C@H]2NC(=O)[C@@H]4NC(=O)[C@H](CC(N)=O)NC(=O)[C@H](NC(=O)[C@@H](CC(C)C)NC)[C@H](O)c5ccc(c(Cl)c5)Oc5cc4cc(c5O[C@@H]4O[C@H](CO)[C@@H](O)[C@H](O)[C@H]4O[C@H]4C[C@](C)(NC(=O)[C@H](N)C(C)C)[C@H](O)[C@H](C)O4)Oc4ccc(cc4Cl)[C@@H](O)[C@H](NC2=O)C(=O)N[C@@H]3C(=O)O)cc1 (atropisomer, axis not shown) [Compound 343]
0.01 to 0.5 (≈ 0.00522 to 0.261 µM) | 0.01 to 0.5 (≈ 0.00522 to 0.261 µM) | 0.01 to 0.5 (≈ 0.00522 to 0.261 µM) | 0.01 to 0.5 (≈ 0.00522 to 0.261 µM) | 0.01 to 0.5 (≈ 0.00522 to 0.261 µM) | 4 to 8 (≈ 2.09 to 4.18 µM) | 0.01 to 0.5 (≈ 0.00522 to 0.261 µM) | 1 to 2 (≈ 0.522 to 1.04 µM) | 0.01 to 0.5 (≈ 0.00522 to 0.261 µM) | 0.01 to 0.5 (≈ 0.00522 to 0.261 µM) | 0.01 to 0.5 (≈ 0.00522 to 0.261 µM) | CCCCCCc1ccc(S(=O)(=O)NCCCCCCNCc2c(O)cc3c(c2O)-c2cc(ccc2O)[C@H]2NC(=O)[C@@H]4NC(=O)[C@H](CC(N)=O)NC(=O)[C@H](NC(=O)[C@@H](CC(C)C)NC)[C@H](O)c5ccc(c(Cl)c5)Oc5cc4cc(c5O[C@@H]4O[C@H](CO)[C@@H](O)[C@H](O)[C@H]4O[C@H]4C[C@](C)(NC(=O)CCCCCN)[C@H](O)[C@H](C)O4)Oc4ccc(cc4Cl)[C@@H](O)[C@H](NC2=O)C(=O)N[C@@H]3C(=O)O)cc1 (atropisomer, axis not shown) [Compound 344]
0.01 to 0.5 (≈ 0.00537 to 0.269 µM) | 0.01 to 0.5 (≈ 0.00537 to 0.269 µM) | 0.01 to 0.5 (≈ 0.00537 to 0.269 µM) | 0.01 to 0.5 (≈ 0.00537 to 0.269 µM) | 0.01 to 0.5 (≈ 0.00537 to 0.269 µM) | > 16 | 0.01 to 0.5 (≈ 0.00537 to 0.269 µM) | 8 to 16 (≈ 4.3 to 8.6 µM) | 0.01 to 0.5 (≈ 0.00537 to 0.269 µM) | 0.01 to 0.5 (≈ 0.00537 to 0.269 µM) | 0.01 to 0.5 (≈ 0.00537 to 0.269 µM) | CCCCCOc1ccc(S(=O)(=O)NCCCCCCNCc2c(O)cc3c(c2O)-c2cc(ccc2O)[C@H]2NC(=O)[C@@H]4NC(=O)[C@H](CC(N)=O)NC(=O)[C@H](NC(=O)[C@@H](CC(C)C)NC)[C@H](O)c5ccc(c(Cl)c5)Oc5cc4cc(c5O[C@@H]4O[C@H](CO)[C@@H](O)[C@H](O)[C@H]4O[C@H]4C[C@](C)(NC(=O)CN)[C@H](O)[C@H](C)O4)Oc4ccc(cc4Cl)[C@@H](O)[C@H](NC2=O)C(=O)N[C@@H]3C(=O)O)cc1 (atropisomer, axis not shown) [Compound 345]
